In the NIST ThermoML archive (doi:10.1021/acs.jced.9b00561):
± gives the expanded uncertainty stated by the source.

Experiment: refractive index (Na D-line) (dimensionless); wn = mass fraction of the nth substance listed
Settings: 323.15 K, 101.3 kPa, Liquid, Standard Abbe refractometry

For `[Cl-].[Li+]` [lithium chloride] + O, which refractive index (w1 = 0.4841) is on record?
Its refractive index is 1.439 ± 0.0018.

Which refractive index (w1 = 0.0953) does the source give for `O=BOB([O-])OB([O-])OB=O.[Na+].[Na+]` [sodium tetraborate] + O here?
Its refractive index is 1.3477 ± 0.0004.

For `[Cl-].[Na+]` [sodium chloride] + O, which refractive index (w1 = 0.2683) is on record?
Its refractive index is 1.3765 ± 0.0019.
